Test results taken from patent US20030095958A1, “Inhibitors of bace” (priority 2001, published 2003).

Molecular target: BACE (Homo sapiens, UniProt P56817)
Assay: Ki Determination for the Inhibition of BACE (FS-1 peptide fluorescence cleavage assay)
Type: biochemical
Settings: apparent Ki; 50 nM BACE, 10 μM FS-1 substrate, 0.1M sodium acetate pH 4.5
How it was run: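 Apparent Ki values derive from fitting fluorescence progress data (355 nm excitation, 495 nm emission) of FS-1 peptide cleavage to an integrated competitive tight-binding model. Reactions held 50 nM BACE, 10 μM substrate and inhibitor in 2% DMSO, pH 4.5 acetate buffer, with a 15 min enzyme-compound preincubation at room temperature.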

BACE, sequence (P56817 46-501): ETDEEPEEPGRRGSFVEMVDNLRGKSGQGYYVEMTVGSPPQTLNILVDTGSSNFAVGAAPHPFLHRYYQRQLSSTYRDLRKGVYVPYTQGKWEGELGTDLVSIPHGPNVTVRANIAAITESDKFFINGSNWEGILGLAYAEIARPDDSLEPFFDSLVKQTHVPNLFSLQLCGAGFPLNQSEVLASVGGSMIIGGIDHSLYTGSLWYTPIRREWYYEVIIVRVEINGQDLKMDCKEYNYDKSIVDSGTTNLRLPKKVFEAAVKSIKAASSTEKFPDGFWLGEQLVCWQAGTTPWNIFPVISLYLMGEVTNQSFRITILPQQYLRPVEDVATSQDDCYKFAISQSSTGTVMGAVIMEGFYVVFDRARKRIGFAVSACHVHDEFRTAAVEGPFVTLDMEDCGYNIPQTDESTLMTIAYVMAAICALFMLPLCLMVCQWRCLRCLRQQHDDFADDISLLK

Structure (SMILES) | Ki
CNCCN(C)c1ccc(-c2ccc(C(F)(F)F)cc2)cc1NCc1ccc2ccccc2c1 [Compound 226, N4-Methyl-N4-(2-methylamino-ethyl)-N3-naphthalen-2-ylmethyl-4′-trifluoromethyl-biphenyl-3,4-diamine] | < 3 µM
Cc1ccc(-c2ccc(N3CCNCC3)c(NC(=O)c3cccc4ccccc34)c2)cc1 [Compound 124, Naphthalene-1-carboxylic acid (4′-methyl-4-piperazin-1-yl-biphenyl-3-yl)-amide] | 3 to 30 µM
COc1ccc(-c2ccc(N3CCNCC3)c(NC(=O)c3cccc4ccccc34)c2)cc1 [Compound 120, Naphthalene-1-carboxylic acid (4′-methoxy-4-piperazin-1-yl-biphenyl-3-yl)-amide] | 3 to 30 µM

Results, then the compound that gave them:

Ki | Structure (SMILES)
< 3 µM | FC(F)(F)c1ccc(COc2ccc3c(c2)c2c(n3Cc3cccc4ccccc34)CNCC2)cc1 [Compound 533, 9-Naphthalen-1-ylmethyl-6-(4-trifluoromethyl-benzyloxy)-2,3,4,9-tetrahydro-1H-b-carboline]
3 to 30 µM | O=S(=O)(Nc1cc(C(F)(F)F)ccc1N1CCNCC1)c1ccc(-c2ccccc2)cc1 [Compound 137, Biphenyl-4-sulfonic acid (2-piperazin-1-yl-5-trifluoromethyl-phenyl)-amide]
< 3 µM | Oc1cccc(-c2cc(COc3ccccc3C(F)(F)F)c(C3=CCNCC3)cc2COc2ccccc2C(F)(F)F)c1 [Compound 351, 4′-(1,2,3,6-Tetrahydro-pyridin-4-yl)-2′,5′-bis-(2-trifluoromethyl-phenoxymethyl)-biphenyl-3-ol]
> 30 µM | O=S(=O)(Nc1cc(C(F)(F)F)ccc1N1CCNCC1)c1cccc2ccccc12 [Compound 135, Naphthalene-1-sulfonic acid (2-piperazin-1-yl-5-trifluoromethyl-phenyl)-amide]
